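Each compound was tested at five concentrations against cells in 96-well plates for 48 hours. GI50 is the concentration that inhibits growth by half.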 Activity calls are given as the source filed them. No stated cut-off is given here; in the data, active = GI50 up to about 1.1 µM and inactive = higher.
Experiments:
Test in all cases: NCI-60 cell line screen, 48 h
[1] = system: UACC-62
[2] = system: SNB-75
[3] = system: PC-3
[4] = system: SK-MEL-5
[5] = system: OVCAR-5
[6] = system: M14
[7] = system: SK-MEL-28
[8] = system: HT-29
[9] = system: OVCAR-4
[10] = system: HCT-116
[11] = system: NCI-H522
[12] = system: RXF 393
[13] = system: RPMI-8226
[14] = system: OVCAR-3
[15] = system: A498
[16] = system: DU-145
[17] = system: NCI/ADR-RES
[18] = system: SF-295
[19] = system: TK-10
[20] = system: Malme-3M

Compound: CCOP(=O)(/C=C/n1ccc(N)nc1=O)OCC
- GI50 [1]: > 100 µM (inactive)
- GI50 [2]: > 100 µM (inactive)
- GI50 [3]: > 100 µM (inactive)
- GI50 [4]: > 100 µM (inactive)
- GI50 [5]: > 100 µM (inactive)
- GI50 [6]: > 100 µM (inactive)
- GI50 [7]: > 100 µM (inactive)
- GI50 [8]: > 100 µM (inactive)
- GI50 [9]: > 100 µM (inactive)
- GI50 [10]: > 100 µM (inactive)
- GI50 [11]: > 100 µM (inactive)
- GI50 [12]: > 100 µM (inactive)
- GI50 [13]: > 100 µM (inactive)
- GI50 [14]: > 100 µM (inactive)
- GI50 [15]: > 100 µM (inactive)
- GI50 [16]: > 100 µM (inactive)
- GI50 [17]: > 100 µM (inactive)
- GI50 [18]: > 100 µM (inactive)
- GI50 [19]: > 100 µM (inactive)

Compound: CC(C)(C)OC(=O)N1CCc2c(n(C/C=C/c3ccccc3)[nH]c2=O)C1
- GI50 [1]: > 100 µM (inactive)
- GI50 [20]: > 75.2 µM (inactive)
- GI50 [2]: > 100 µM (inactive)
- GI50 [3]: > 100 µM (inactive)
- GI50 [4]: 34.4 µM (inactive)
- GI50 [6]: > 100 µM (inactive)
- GI50 [7]: > 100 µM (inactive)
- GI50 [8]: > 100 µM (inactive)
- GI50 [9]: 97.1 µM (inactive)
- GI50 [10]: > 100 µM (inactive)
- GI50 [11]: > 51.2 µM (inactive)
- GI50 [12]: > 100 µM (inactive)
- GI50 [13]: 95.5 µM (inactive)
- GI50 [14]: > 100 µM (inactive)
- GI50 [15]: > 100 µM (inactive)
- GI50 [16]: > 87.9 µM (inactive)
- GI50 [17]: 26.2 µM (inactive)
- GI50 [18]: > 100 µM (inactive)
- GI50 [19]: > 81.3 µM (inactive)

Compound: CNC(=O)CC1NC(=O)c2csc(n2)-c2ccc(-c3nc(C4=NC(C(=O)N5CCCC5C(N)=O)CO4)cs3)nc2-c2csc(n2)-c2csc(n2)C(C(C)C)NC(=O)CNC(=O)c2csc(n2)C(C(C)C)NC(=O)c2nc1sc2C (configuration not stated)
- GI50 [1]: 0.00438 µM (active)
- GI50 [20]: > 25 µM (inactive)
- GI50 [2]: 0.00203 µM (active)
- GI50 [3]: 0.00489 µM (active)
- GI50 [4]: 0.00289 µM (active)
- GI50 [5]: 0.0271 µM (active)
- GI50 [6]: 0.0123 µM (active)
- GI50 [7]: > 25 µM (inactive)
- GI50 [8]: > 25 µM (inactive)
- GI50 [9]: 4.33 µM (inactive)
- GI50 [10]: 0.00114 µM (active)
- GI50 [12]: 0.00386 µM (active)
- GI50 [13]: > 25 µM (inactive)
- GI50 [14]: 0.00979 µM (active)
- GI50 [15]: 0.0923 µM (active)
- GI50 [16]: 0.0038 µM (active)
- GI50 [17]: 6.05 µM (inactive)
- GI50 [18]: 0.021 µM (active)
- GI50 [19]: 0.0386 µM (active)

Compound: COc1cc2c(c(O)c1OC)C(O)C1CCC(=O)N1C2c1cccc2ccccc12 (configuration not stated)
- GI50 [1]: > 100 µM (inactive)
- GI50 [20]: 36.9 µM (inactive)
- GI50 [2]: 27 µM (inactive)
- GI50 [3]: 49.7 µM (inactive)
- GI50 [4]: > 100 µM (inactive)
- GI50 [5]: > 100 µM (inactive)
- GI50 [6]: > 100 µM (inactive)
- GI50 [7]: > 100 µM (inactive)
- GI50 [8]: > 100 µM (inactive)
- GI50 [9]: 65.6 µM (inactive)
- GI50 [10]: > 100 µM (inactive)
- GI50 [11]: 27.7 µM (inactive)
- GI50 [12]: 57.9 µM (inactive)
- GI50 [13]: > 100 µM (inactive)
- GI50 [14]: > 100 µM (inactive)
- GI50 [15]: > 100 µM (inactive)
- GI50 [16]: > 100 µM (inactive)
- GI50 [17]: 54.6 µM (inactive)
- GI50 [18]: 99.8 µM (inactive)

Compound: O=C(C/C(=N/O)C(=O)NC1=C(Cl)C(=O)c2ccccc2C1=O)CC(c1ccccc1)c1c(O)c2ccccc2oc1=O (configuration not stated)
- GI50 [1]: 3.14 µM (inactive)
- GI50 [20]: 2.08 µM (inactive)
- GI50 [2]: 3.87 µM (inactive)
- GI50 [3]: 3.92 µM (inactive)
- GI50 [4]: 1.12 µM (inactive)
- GI50 [5]: 17.7 µM (inactive)
- GI50 [6]: 4.59 µM (inactive)
- GI50 [7]: 7.43 µM (inactive)
- GI50 [8]: 4.84 µM (inactive)
- GI50 [9]: 10 µM (inactive)
- GI50 [10]: 4.51 µM (inactive)
- GI50 [11]: 13.2 µM (inactive)
- GI50 [12]: 13.2 µM (inactive)
- GI50 [13]: 19.1 µM (inactive)
- GI50 [14]: 3.88 µM (inactive)
- GI50 [15]: 46.6 µM (inactive)
- GI50 [16]: 3.27 µM (inactive)
- GI50 [17]: 11.2 µM (inactive)
- GI50 [18]: 7.93 µM (inactive)

Compound: Cc1ccc(CC(=O)Nc2ccc(NC(=O)CNC(=O)/C=C/c3ccc(-c4ccccc4)cc3)cc2C(=O)c2ccccc2)cc1
- GI50 [1]: 13.1 µM (inactive)
- GI50 [20]: 2.99 µM (inactive)
- GI50 [3]: 1.98 µM (inactive)
- GI50 [4]: 1.69 µM (inactive)
- GI50 [5]: 4.48 µM (inactive)
- GI50 [6]: 4.81 µM (inactive)
- GI50 [7]: 11.7 µM (inactive)
- GI50 [8]: 1.58 µM (inactive)
- GI50 [10]: 1.36 µM (inactive)
- GI50 [11]: 5.13 µM (inactive)
- GI50 [12]: 2.38 µM (inactive)
- GI50 [13]: 10.4 µM (inactive)
- GI50 [14]: 4.98 µM (inactive)
- GI50 [15]: 0.989 µM (active)
- GI50 [16]: 2.49 µM (inactive)
- GI50 [17]: 9.71 µM (inactive)
- GI50 [18]: 2.22 µM (inactive)
- GI50 [19]: 2.08 µM (inactive)

Compound: CC(=O)NC1C(OCc2ccccc2)OC(CO)C(O)C1OCC(=O)NC(C)C(=O)NC(CCC(=O)NCCCCCC(=O)Nc1ccc2c(c1)CN1C(=O)c3ccccc3C1=N2)C(N)=O (configuration not stated)
- GI50 [1]: 57.3 µM (inactive)
- GI50 [20]: 78.3 µM (inactive)
- GI50 [2]: 49.8 µM (inactive)
- GI50 [3]: 58.6 µM (inactive)
- GI50 [4]: 75 µM (inactive)
- GI50 [5]: > 100 µM (inactive)
- GI50 [6]: > 100 µM (inactive)
- GI50 [7]: > 100 µM (inactive)
- GI50 [8]: > 100 µM (inactive)
- GI50 [9]: > 100 µM (inactive)
- GI50 [10]: 39.6 µM (inactive)
- GI50 [12]: > 100 µM (inactive)
- GI50 [13]: 38 µM (inactive)
- GI50 [14]: > 100 µM (inactive)
- GI50 [15]: > 100 µM (inactive)
- GI50 [16]: > 100 µM (inactive)
- GI50 [17]: > 100 µM (inactive)
- GI50 [18]: 75.7 µM (inactive)
- GI50 [19]: 30.3 µM (inactive)

Reference: ChEMBL document CHEMBL1201862, “PubChem BioAssay data set” (2004)
